# “Also recorded” adds a separate entry of the source.
# Experiments:
# [1] = tested on: keratinocytes; experiment: Keratinocyte SDS viability assay (Neutral Red); type: cell-based; settings: 24 h, read-out: cell viability produced by SDS
# Description: Keratinocytes were grown in 96 well plates to approximately 80% confluency in keratinocyte growth medium (KGM) which was then replaced with KGM without hydrocortisone for 24-48 hours. The cells were then treated with a concentration of sodium dodecyl sulphate (SDS) which will produce cell viability of approximately 50% ([…]). The test compounds "c9 t11 CLA" and "t10 c12 CLA" in table 7 are the same as the agents described above in Example 3. […] After incubating for 24 hours the medium was removed and the viability determined by the Neutral Red method. With this method the cells were incubated for 3 hours in KGM containing 25 μg/ml neutral red after which the medium was removed and the cells were then extracted with […] of 1% (v/v) acetic acid, 50% (v/v) ethanol for 30 min units. The absorbance of the extract at 562 nm was determined and the viability evaluated by reference to wells which contained neither SDS nor test compounds.
# [2] = tested on: decorin; experiment: Decorin synthesis in human dermal fibroblasts (dot blot assay of conditioned medium); type: cell-based; settings: Fibroblast, 24 h, read-out: upregulation of decorin synthesis
# Description: Preparation of Dermal Fibroblast Conditioned Medium Primary human foreskin fibroblasts at passage 2 (P2) were seeded into 12-well plates at 10000 cells/cm^2 and maintained for 24 hours in an atmosphere of 5% carbon dioxide and 4% oxygen in Dulbeccos Modified Eagles Medium (DMEM) supplemented with 10% foetal calf serum. After this time the cells were washed with serum free DMEM and then incubated in fresh serum free DMEM for a further 60 hours. The fibroblast monolayers were then washed again with serum free DMEM. Test reagents and vehicle controls were added to the cells in triplicate in a final volume of 0.4 ml/well fresh serum free DMEM and incubated for a further 24 hours. This fibroblast conditioned medium was either analysed immediately or snap frozen in liquid nitrogen and stored at -70° C. for future analysis. The cells were then counted and data from the dot-blot analysis subsequently standardised to cell number.
# Samples of conditioned medium from dermal fibroblasts treated with vehicle (as a control) or test reagents were supplemented with 20 mM dithiothreitol (1:10 dilution of 200 mM stock solution) and 0.1% sodium dodecylsulphate (1:100 dilution of 10% stock solution), mixed well and then incubated at 75° C. for 2 minutes. […]
# [3] = tested on: procollagen-I; experiment: Immunohistochemical analysis of procollagen-I expression in photodamaged forearm skin after topical retinoic acid; type: in vivo, human (women)
# Excerpt: (§1) Two groups of women were recruited with identical or nearly identical degrees of mild to moderate photodamage on each outer forearm. They were supplied with 0.05% retinoic acid in a moisturising base (Retinova®) and also with a colour matched moisturising cream with similar sensory characteristics (Dermacare® lotion) but no active ingredients as a placebo control. Each participant of the two groups applied the Retinova® to one outer forearm and placebo (Dermacare®) to the other outer forearm. Group 1 applied the products daily to their outer forearms for 14 weeks and the Group 2 applied the products to their outer forearms for 28 weeks. At the end of the studies two full thickness 4 mm punch biopsies were taken from the treated areas of each forearm. Immunohistochemical analysis of the biopsy tissue taken from the participants was performed to identify the effect of retinoic acid treatment on the expression of the skin extracellular matrix components decorin and procollagen-I as compared with the placebo treated forearms. The following procedure was followed:
# (§2) Antibody dilution buffer for wax sections was composed of Tris Buffered Saline (TBS), 3% bovine serum albumin (BSA), 0.05% Triton X-100 and 0.05% sodium azide. Primary antibodies for procollagen-I (amino terminal) were obtained from Chemicon International Inc. (cat# MAB 1912, rat IgG1) and used on wax sections at a dilution of 1:800, overnight at 4° C. after the section had been pre-treated trypsin (0.5 mg/ml, 25 minutes, 37° C.). Primary antibodies for decorin were obtained from Biogenesis (rabbit polyclonal) and used on wax sections at a dilution of 1:800, overnight at 4° C. Anti-rat biotinylated secondary antibodies were obtained from DAKO (cat# E0468, rabbit polyclonal) was applied to wax sections at a dilution of 1:400. Anti-rabbit biotinylated secondary antibodies were obtained from Amersham (cat# RPN 1004, donkey polyclonal) was applied to wax sections at a dilution of 1:400. Streptavidin conjugated alkaline phosphatase was obtained from Zymed (cat# 43-4322) and used at a concentration of 1:2500. […]
# [4] = tested on: skin; settings: topical treatment of skin; Griffiths et al. 1993; cited from earlier work
# [5] = tested on: decorin; experiment: Immunohistochemical analysis of decorin expression in photodamaged forearm skin after topical retinoic acid; type: in vivo, human (women)
# Excerpt: as §1, §2
# [6] = Group 1 after 14 weeks, 0.05% retinoic acid (Retinova) daily vs placebo, total 16 participants
# [7] = Group 2 after 28 weeks, 0.05% retinoic acid (Retinova) vs placebo, total 15 participants
# [8] = topical retinoic acid (Retinova) vs placebo (Dermacare)
SMILES,viability at 5 µg/mL [1],activity at 1 µM [2],"No. of Participants showing marked increase in expression of procollagen-I [3, 6]","No. of Participants showing marked increase in expression of procollagen-I [3, 7]","procollagen-I expression in photodamaged skin [3, 8]",wrinkle effacement / dermal repair [4],"No. of Participants showing marked increase in expression of decorin [5, 6]","No. of Participants showing marked increase in expression of decorin [5, 7]","decorin expression in photodamaged skin [5, 8]"
"CCCCCCCCCCCCOS(=O)(=O)[O-].[Na+] [sodium dodecyl sulphate (SDS), sodium dodecyl sulphate]",~50%,–,–,–,–,–,–,–,–
"CC1=C(/C=C/C(C)=C/C=C/C(C)=C/C(=O)O)C(C)(C)CCC1 [Retinoic acid, retinoic acid]",–,138 ± 14%,9 No. of Participants,10 No. of Participants,marked upregulation,induces dermal repair of photodamaged skin; also recorded: wrinkle effacement and dermal repair following topical treatment of skin with retinoic acid arises through new collagen deposition and synthesis in the skin,10 No. of Participants,15 No. of Participants,marked upregulation

# Reference: US6287553A, “Skin care composition” (Unilever Home & Personal Care USA, division of Conopco, Inc., priority 1998, dated 2001)
